The record followed here is US4751302A, “Indazole derivatives” (priority 1982, dated 1988).

Data set [1] has as its system Carrageenin edema in rat's paw. Description: Carrageenin Edema Test in Rat's Paw (anti-inflammatory activity, Table 1). The format is in vivo. The note with it: 100 mg/kg oral, hydrochloride, rat. On the procedure: An anti-inflammatory activity was measured by orally administering 100 mg/kg of a hydrochloride of the indazole derivative of this invention as set forth in Table 1 to an animal in accordance with the standard method of Carrageenin Edema Test in Rat's Paw described in C. A. Winter et al., Proc. Soc. Exp. Biol. Med., 111, 544 (1962).

A short description of data set [2]: in vivo. To be noted: mouse, ip, intraperitoneal, hydrochloride, male ddy mice.

In turn, `CC1CCCC(C)N1CCCNc1n[nH]c2ccc(Cl)cc12` (stereo not drawn) [(60), 3-[3-(2,6-Dimethylpiperidino)propylamino]-5-chloroindazole] returned an inhibition in vivo at 100 mg/kg in data set [1] of 36%. Also, in data set [2], the LD50 was found to be 310 mg/kg.
`OC1CCN(CCCNc2n[nH]c3ccc(Cl)cc23)CC1` [(61), 3-[3-(4-Hydroxypiperidino)propylamino]-5-chloroindazole]: the inhibition in vivo at 100 mg/kg in data set [1] came out at 46%. The same molecule displayed an LD50 in data set [2] of 210 mg/kg.
The corresponding values for `Clc1ccc2[nH]nc(NCCCN3CCC(Cl)CC3)c2c1` [(62), 3-[3-(4-Chloropiperidino)propylamino]-5-chloroindazole] are 65% and 312 mg/kg.
As to `Clc1ccc2[nH]nc(NCCCN3CCCCCC3)c2c1` [(63), 3-(3-Homopiperidinopropylamino)-5-chloroindazole], in data set [1], testing at 100 mg/kg gave an inhibition in vivo of 57%. For the same molecule, the LD50 in data set [2] worked out at 331 mg/kg.
Taken in the same sequence, the figures for `CN1CCN(CCCNc2n[nH]c3ccc(Cl)cc23)CC1` [(64), 3-[3-(4-Methylpiperadino)propylamino]-5-chloroindazole] were 29% and 229 mg/kg.
In turn, `Clc1ccc2[nH]nc(NCCCN3CCCC3)c2c1` [(65), 3-(3-Pyrrolidinopropylamino)-5-chloroindazole] returned an inhibition in vivo at 100 mg/kg in data set [1] of 36%. This molecule displayed an LD50 in data set [2] of 136 mg/kg.
The corresponding values for `Clc1ccc2[nH]nc(NCCCN3CCOCC3)c2c1` [(66), 3-(3-Morpholinopropylamino)-5-chloroindazole] are 46% and 246 mg/kg.
In data set [1], `CCN(CC)CCCNc1n[nH]c2cccc(O)c12` [(67), 3-(3-Diethylaminopropylamino)-4-hydroxyindazole] had an inhibition in vivo at 100 mg/kg of 55%. The molecule further returned an LD50 in data set [2] of 255 mg/kg.
Taken in the same sequence, the figures for `CCN(CC)CCCNc1n[nH]c2ccc(O)cc12` [(68), 3-(3-Diethylaminopropylamino)-5-hydroxyindazole] were 52% and 352 mg/kg.
The corresponding values for `CCN(CC)CCCNc1n[nH]c2cc(O)ccc12` [(69), 3-(3-Diethylaminopropylamino)-6-hydroxyindazole] are 51% and 151 mg/kg.
As for `CCN(CC)CCCNc1n[nH]c2c(O)cccc12` [(70), 3-(3-Diethylaminopropylamino)-7-hydroxyindazole], the inhibition in vivo at 100 mg/kg in data set [1] came out at 56%. The molecule also displayed an LD50 in data set [2] of 156 mg/kg.
Taken in the same sequence, the figures for `CCN(CC)CCCNc1n[nH]c2ccc(I)cc12` [(71), 3-(3-Diethylaminopropylamino)-5-iodoindazole] were 56% and 256 mg/kg.
Taken in the same sequence, the figures for `CCN(CC)CCCNc1n[nH]c2c(I)cccc12` [(72), 3-(3-Diethylaminopropylamino)-7-iodoindazole] were 53% and 253 mg/kg.
For `CCN(CC)CCCNc1n[nH]c2c(N)cc(N)cc12` [(73), 3-(3-Diethylaminopropylamino)-5,7-diaminoindazole], testing at 100 mg/kg in data set [1] gave an inhibition in vivo of 55%. In addition, the LD50 in data set [2] was 355 mg/kg.
In data set [1], `CCCCN(CCCC)CCCNc1n[nH]c2ccc(O)cc12` [(74), 3-(3-Di-n-butylaminopropylamino)-5-hydroxyindazole] came in with an inhibition in vivo at 100 mg/kg of 53%. In data set [2], this molecule registered an LD50 of 253 mg/kg.
Take `CC(CCNc1n[nH]c2ccc(O)cc12)N(C)C` (stereo not drawn) [(75), 3-(3-Dimethylaminobutylamino)-5-hydroxyindazole]: 100 mg/kg produced 34% inhibition in vivo in data set [1]. The molecule further yielded an LD50 in data set [2] of 234 mg/kg.
The corresponding values for `CCN(CC)C(CCNc1n[nH]c2ccc(O)cc12)CC(C)C` (stereo not drawn) [(76), 3-(3-Diethylamino-5-methylhexylamino)-5-hydroxyindazole] are 46% and 146 mg/kg.
Taken in the same sequence, the figures for `Oc1ccc2[nH]nc(NCCCN3CCCCC3)c2c1` [(77), 3-(3-Piperidinopropylamino)-5-hydroxyindazole] were 51% and 251 mg/kg.
